Data from US20240025883A1, “PYRIMIDIN-2-YL SULFONAMIDE DERIVATIVES” (Hoffmann-La Roche Inc., priority 2021, published 2024).
pIC50: −log10 of the molar value.

Each compound was assayed against human GPR17 short isoform (Homo sapiens (Human), UniProt Q13304) (assay: GPR17 cAMP assay (hGPR17 cAMP, antagonist mode against EC80 of MDL29,951)). Settings: CHO-K1 cells stably expressing human GPR17 short isoform; EC80 of agonist MDL29,951; forskolin 15 μM.
Sequence of human GPR17 short isoform (Q13304 29-367): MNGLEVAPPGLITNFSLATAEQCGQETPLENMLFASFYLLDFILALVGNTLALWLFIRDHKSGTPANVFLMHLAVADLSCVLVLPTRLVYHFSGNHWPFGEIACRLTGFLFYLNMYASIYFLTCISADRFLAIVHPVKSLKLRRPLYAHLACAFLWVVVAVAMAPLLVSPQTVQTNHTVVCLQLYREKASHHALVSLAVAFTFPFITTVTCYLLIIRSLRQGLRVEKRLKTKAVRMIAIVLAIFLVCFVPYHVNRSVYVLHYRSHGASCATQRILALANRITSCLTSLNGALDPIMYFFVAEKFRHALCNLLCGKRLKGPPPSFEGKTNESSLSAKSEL
Type: cell-based
Summary of the method: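 CHO-K1 cells stably expressing untagged human GPR17 short isoform, 10,000/well in HBSS/10 mM HEPES/0.1% BSA pH 7.4. Compounds added with EC80 MDL29,951 and 0.5 mM IBMX, then 15 μM forskolin 5 min later, 30 min at room temperature; cAMP by TR-FRET, normalized to reference antagonist, sigmoidal fit.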
For `COc1nc(NS(=O)(=O)c2c[nH]c3cc(C(F)F)ccc23)ncc1OCCF` [Example 235, 6-(difluoromethyl)-N-[5-(2-fluoroethoxy)-4-methoxy-pyrimidin-2-yl]-1H-indole-3-sulfonamide], the pIC50 was 7.49.
Work on `COc1nc(NS(=O)(=O)c2c[nH]c3cc(C(F)F)ccc23)nc(OC)c1CC(F)F` [Example 236, N-[5-(2,2-difluoroethyl)-4,6-dimethoxy-pyrimidin-2-yl]-6-(difluoromethyl)-1H-indole-3-sulfonamide] yielded a pIC50 of 7.85.
`COc1nc(NS(=O)(=O)c2c[nH]c3cc(C(F)F)ccc23)nc(OC)c1OCC#N` [Example 237, N-[5-(cyanomethoxy)-4,6-dimethoxy-pyrimidin-2-yl]-6-(difluoromethyl)-1H-indole-3-sulfonamide] was tested, and the pIC50 was 7.47.
For `COc1nc(NS(=O)(=O)c2c[nH]c3nc(C(F)F)ccc23)ncc1OC(F)(F)CF` [Example 238, 6-(difluoromethyl)-N-[4-methoxy-5-(1,1,2-trifluoroethoxy)pyrimidin-2-yl]-1H-pyrrolo[2,3-b]pyridine-3-sulfonamide], the pIC50 was 6.42.
`COc1nc(NS(=O)(=O)c2c[nH]c3nc(C(F)F)ccc23)nc(OC)c1CCC#N` [Example 239, N-[5-(2-cyanoethyl)-4,6-dimethoxy-pyrimidin-2-yl]-6-(difluoromethyl)-1H-pyrrolo[2,3-b]pyridine-3-sulfonamide] was tested, and the pIC50 was 7.34.
`COc1nc(NS(=O)(=O)c2c[nH]c3c(F)c(Br)ccc23)ncc1CCC#N` [Example 240, 6-bromo-N-[5-(2-cyanoethyl)-4-methoxy-pyrimidin-2-yl]-7-fluoro-1H-indole-3-sulfonamide] showed a pIC50 of 7.32.
`COc1nc(NS(=O)(=O)c2c[nH]c3c(F)c(Br)ccc23)nc(OC)c1OC(F)F` [Example 241, 6-bromo-N-[5-(difluoromethoxy)-4,6-dimethoxy-pyrimidin-2-yl]-7-fluoro-1H-indole-3-sulfonamide] gave a pIC50 of 7.68.
Compound `COc1nc(NS(=O)(=O)c2c[nH]c3c(F)c(Br)ccc23)nc(OC)c1OCC(F)F` [Example 242, 6-bromo-N-[5-(2,2-difluoroethoxy)-4,6-dimethoxy-pyrimidin-2-yl]-7-fluoro-1H-indole-3-sulfonamide] has a pIC50 of 7.37.
`COc1nc(NS(=O)(=O)c2c[nH]c3c(F)c(Br)ccc23)nc(OC)c1CCC#N` [Example 243, 6-bromo-N-[5-(2-cyanoethyl)-4,6-dimethoxy-pyrimidin-2-yl]-7-fluoro-1H-indole-3-sulfonamide] showed a pIC50 of 8.05.
Compound `COc1nc(NS(=O)(=O)c2c[nH]c3c(F)c(Br)ccc23)nc(OC)c1OCC#N` [Example 244, 6-bromo-N-[5-(cyanomethoxy)-4,6-dimethoxy-pyrimidin-2-yl]-7-fluoro-1H-indole-3-sulfonamide] has a pIC50 of 7.80.
`COc1nc(NS(=O)(=O)c2c[nH]c3cc(Br)ccc23)nc(OC)c1CC(F)F` [Example 245, 6-bromo-N-[5-(2,2-difluoroethyl)-4,6-dimethoxy-pyrimidin-2-yl]-1H-indole-3-sulfonamide] showed a pIC50 of 7.57.
Compound `COc1nc(NS(=O)(=O)c2c[nH]c3cc(Br)ccc23)nc(OC)c1OCC#N` [Example 246, 6-bromo-N-[5-(cyanomethoxy)-4,6-dimethoxy-pyrimidin-2-yl]-1H-indole-3-sulfonamide] has a pIC50 of 7.72.
`COc1nc(NS(=O)(=O)c2c[nH]c3c(F)c(C(F)F)ccc23)ncc1OCCF` [Example 247, 6-(difluoromethyl)-7-fluoro-N-[5-(2-fluoroethoxy)-4-methoxy-pyrimidin-2-yl]-1H-indole-3-sulfonamide] gave a pIC50 of 7.38.
`COc1nc(NS(=O)(=O)c2c[nH]c3c(F)c(C(F)F)ccc23)ncc1CC(F)F` [Example 248, N-[5-(2,2-difluoroethyl)-4-methoxy-pyrimidin-2-yl]-6-(difluoromethyl)-7-fluoro-1H-indole-3-sulfonamide] showed a pIC50 of 6.44.
`COc1nc(NS(=O)(=O)c2c[nH]c3c(F)c(C(F)F)ccc23)nc(OC)c1OC(F)F` [Example 249, N-[5-(difluoromethoxy)-4,6-dimethoxy-pyrimidin-2-yl]-6-(difluoromethyl)-7-fluoro-1H-indole-3-sulfonamide] was tested, and the pIC50 was 7.44.
In the case of `COc1nc(NS(=O)(=O)c2c[nH]c3c(F)c(C(F)F)ccc23)nc(OC)c1OCC(F)F` [Example 250, N-[5-(2,2-difluoroethoxy)-4,6-dimethoxy-pyrimidin-2-yl]-6-(difluoromethyl)-7-fluoro-1H-indole-3-sulfonamide], the pIC50 was 7.46.
`COc1nc(NS(=O)(=O)c2c[nH]c3c(F)c(C(F)F)ccc23)nc(OC)c1CC(F)F` [Example 251, N-[5-(2,2-difluoroethyl)-4,6-dimethoxy-pyrimidin-2-yl]-6-(difluoromethyl)-7-fluoro-1H-indole-3-sulfonamide] gave a pIC50 of 7.66.
`COc1nc(NS(=O)(=O)c2c[nH]c3c(F)c(C(F)F)ccc23)nc(OC)c1CCC#N` [Example 252, N-[5-(2-cyanoethyl)-4,6-dimethoxy-pyrimidin-2-yl]-6-(difluoromethyl)-7-fluoro-1H-indole-3-sulfonamide] was tested, and the pIC50 was 7.85.
`COc1nc(NS(=O)(=O)c2c[nH]c3c(F)c(C(F)F)ccc23)nc(OC)c1OCC#N` [Example 253, N-[5-(cyanomethoxy)-4,6-dimethoxy-pyrimidin-2-yl]-6-(difluoromethyl)-7-fluoro-1H-indole-3-sulfonamide] showed a pIC50 of 7.70.
With `COc1nc(NS(=O)(=O)c2c[nH]c3cc(C4CC4)ccc23)ncc1CC(F)F` [Example 254, 6-cyclopropyl-N-[5-(2,2-difluoroethyl)-4-methoxy-pyrimidin-2-yl]-1H-indole-3-sulfonamide] the pIC50 was 7.12.
Compound `COc1nc(NS(=O)(=O)c2c[nH]c3c(Br)c(Cl)ccc23)ncc1CCC#N` [Example 255, 7-bromo-6-chloro-N-[5-(2-cyanoethyl)-4-methoxy-pyrimidin-2-yl]-1H-indole-3-sulfonamide] has a pIC50 of 7.42.
For `COc1nc(NS(=O)(=O)c2c[nH]c3cc(F)ccc23)nc(OC)c1OC(F)F` [Example 256, N-[5-(difluoromethoxy)-4,6-dimethoxy-pyrimidin-2-yl]-6-fluoro-1H-indole-3-sulfonamide], the pIC50 was 6.67.
`COc1nc(NS(=O)(=O)c2c[nH]c3cc(F)ccc23)nc(OC)c1OCC(F)F` [Example 257, N-[5-(2,2-difluoroethoxy)-4,6-dimethoxy-pyrimidin-2-yl]-6-fluoro-1H-indole-3-sulfonamide] was tested, and the pIC50 was 7.08.
In the case of `COc1nc(NS(=O)(=O)c2c[nH]c3cc(F)ccc23)nc(OC)c1CC(F)F` [Example 258, N-[5-(2,2-difluoroethyl)-4,6-dimethoxy-pyrimidin-2-yl]-6-fluoro-1H-indole-3-sulfonamide], the pIC50 was 7.43.
For `COc1nc(NS(=O)(=O)c2c[nH]c3cc(F)ccc23)nc(OC)c1CCC#N` [Example 259, N-[5-(2-cyanoethyl)-4,6-dimethoxy-pyrimidin-2-yl]-6-fluoro-1H-indole-3-sulfonamide], the pIC50 was 7.60.
In the case of `COc1nc(NS(=O)(=O)c2c[nH]c3cc(Cl)ccc23)ncc1CC(C)(F)F` [Example 260, 6-chloro-N-[5-(2,2-difluoropropyl)-4-methoxy-pyrimidin-2-yl]-1H-indole-3-sulfonamide], the pIC50 was 6.31.
Work on `COc1nc(NS(=O)(=O)c2c[nH]c3cc(Cl)ccc23)ncc1CC(F)(F)C(F)F` [Example 261, 6-chloro-N-[4-methoxy-5-(2,2,3,3-tetrafluoropropyl)pyrimidin-2-yl]-1H-indole-3-sulfonamide] yielded a pIC50 of 7.04.
